# Data reported in patent publication US11911406B2, “PH-responsive polymer-drug conjugates for enhanced antibacterial efficacy” (priority 2020, dated 2024).
# Experiments:
# E. coli (ATCC 25922) = assay: MIC, broth microdilution; assay type: cell-based; conditions: 24 h, no pH given
# Protocol: (§1) Bacterial strains. S. aureus Newman was kindly provided by Prof Douglas Weibel; E. coli ATCC25922, S. aureus ATCC 33591 and P. aeruginosa ATCC 27853 were kindly donated by Prof. David Andes. E. coli DH5a was purchased from Thermo Fisher. The bacteria above were grown in Mueller Hinton Broth (MHB) media (Criterion, Santa Maria, Calif., USA). M. smegmatis mc^2155 strain was kindly donated by Prof. Adel M. Talaat, and was grown in Middlebrook 7H9 broth (HiMedia, West Chester, Pa., USA).
# (§2) Minimal inhibitory concentration (MIC) measurements. The MIC of the different treatments on various bacteria strains was determined using the broth microdilution method. Briefly, 100 μL of the respective broth media containing serial twofold dilutions of each compound was placed into a 96-well tissue culture plate. Each bacterial strain was taken from an exponentially growing culture and diluted to 5×10^6 CFU/mL. 10 μL of such microbial suspension was inoculated in each well of the plate, resulting in a final bacteria concentration of approximately 5×10^5 CFU/mL. The bacteria were cultured at 37° C. for 24 h and their growth were observed by reading the optical density (OD) at 600 nm. The MIC was determined as the treatment concentration at which no microbial growth was observed. Broth containing microbial cells alone was used as a positive control and broth without bacteria inoculation was used as a negative control. Each test was carried out in 3 replicates.
# E. coli (DH5 alpha) = assay: MIC, broth microdilution; assay type: cell-based; conditions: 24 h, no pH given
# Protocol: as §1, §2
# M. smegmatis (MC^2 155) = assay: MIC, broth microdilution; assay type: cell-based; conditions: 24 h, no pH given
# Protocol: as §1, §2
# [1] = system: P. aeruginosa (ATCC 27853); assay: MIC, broth microdilution; assay type: cell-based; conditions: 24 h, no pH given
# Protocol: as §1, §2
# [2] = system: S. aureus (MRSA ATCC33591); assay: MIC, broth microdilution; assay type: cell-based; conditions: 24 h, no pH given
# Protocol: as §1, §2
# S. aureus (Newman) = assay: MIC, broth microdilution; assay type: cell-based; conditions: 24 h, no pH given
# Protocol: as §1, §2
# E. coli biofilm = assay: Biofilm inhibition assay (crystal violet); assay type: cell-based; conditions: 512 μg/mL free streptomycin, 24 h
# Protocol: (§3) Biofilm inhibition assays. Exponentially growing bacteria were inoculated into 96 well plates (1×10^4 cell/well) containing MHB broth with 2% (v/w) glucose, incubated under stationary conditions at 37° C. for one day. After biofilm formation, the media was discarded and the plates were washed with PBS to remove the planktonic bacteria. Fresh NMB broth containing serially diluted free streptomycin or PDC were added to the plates and incubated at 37° C. for another 24 h. The media in each well was then removed, and the plates were washed carefully with PBS for 1 time. The biofilm in each well was fixed with 95% ethanol for 15 min and stained with 0.1% crystal violet for 15 min. After washing with Milli-Q water for three times, 33% v/v acetic acid (100 μL/well) was added to solubilize the crystal violet staining. OD 560 in each well was read to determine the biofilm formation. The biofilm formed as described above was also stained with acridine orange and Cy5 labeled PDC, and monitored by CLSM to observe the PDC penetration.
# P. aeruginosa biofilm = assay: Biofilm inhibition assay (crystal violet); assay type: cell-based; conditions: 256 μg/mL streptomycin
# Protocol: as §3
# MRSA biofilm = assay: Biofilm inhibition assay (crystal violet); assay type: cell-based, S. aureus; conditions: 512 μg/mL free streptomycin, 24 h
# Protocol: as §3
# E. coli ATCC 25922 [3] = assay: Evaluation of antibiotic resistance development (serial passaging); assay type: cell-based; conditions: sub-lethal dose (0.5 MIC)
# Protocol: Evaluation of antibiotic resistance development. E. coli ATCC 25922 was employed to study the drug resistance development under sublethal dose treatments of free streptomycin, cationic polymer or the PDC. During a serial of passages, the MIC of each treatment was measured by the broth microdilution method as described above, and the bacteria were exposed to ½MIC at that particular passage. MIC for each passage was recorded and normalized to that of the first passage to determine the drug resistance enhancement.
# [4] = system: P. aeruginosa in Raw 264.7 macrophage; assay: Antibacterial activity for intracellular infection; assay type: cell-based; conditions: Raw 264.7 infected with P. aeruginosa, pH 7.4 and 6.0, 1 day
# Protocol: Antibacterial activity for intracellular infection. The antibacterial activity for intracellular infection was tested following the previous report. Briefly, macrophage Raw 264.7 cells were seeded in 96-well plate at a density of 1×10^4 cell/swell overnight and infected with MRSA or P. aeruginosa at a ratio of 10-20 bacteria per macrophage in FBS free RPMI 1640 medium. After 3 h incubation, the cells were washed and cultured in 1640 medium containing 10% FBS and 50 μg/mL gentamycin for one day to prevent the growth of extracellular bacteria. Then the macrophages were treated with free streptomycin or PDC for another day and lysed with Milli-Q water supplemented with 0.1% Triton-X. The cell lysates were serially diluted and the CFU in each well was determined by plating on MHB agar plates.
# P. aeruginosa ATCC 27853 = assay: Mouse lung infection model; assay type: in vivo, ICR mice; conditions: 2 i.v. injections (1 h and 8 h after the infection)
# Protocol: Mouse lung infection model. […] In another experiment of monitoring the mice survival for the lung infection model, the P. aeruginosa infected mice were given 2 treatments (1 h and 8 h after the infection) and their survival was observed using Kaplan-Meier curves (n=5).
# E. coli ATCC 25922 [5] = assay: Live/Dead bacterial staining assay (AO/EB); assay type: cell-based; conditions: 0.5 h and 3 h
# Protocol: Live/Dead bacterial staining assay. Exponentially growing bacteria (E. coli ATCC 25922) were collected by centrifugation at 8000 rpm for 5 min, washed with saline and diluted to OD 600 value of 0.5. The bacterial suspensions were incubated with different treatments at 37° C. for 0.5 h and 3 h, and then washed with saline and stained by acridine orange (10 μg/mL) and ethidium bromide (EB, […]) solution for 15 min. Afterward, the bacteria were collected via centrifugation, washed with saline for 2 times, resuspended in 70% glycerol and spread on glass slides. The live/dead bacteria were observed by a confocal laser scanning microscope (CLSM).
# [6] = system: HEK 293 human embryonic kidney cells; assay: Cell viability test (MTT cytotoxicity); assay type: cell-based; conditions: 48 h, no pH given
# Protocol: Cell viability test. Cytotoxicity of different components was tested through MTT assays. HEK 293 human embryonic kidney cells were seeded onto a 96-well plate (1×10^4 cells/well) and cultured overnight. The cells were then treated with various polymers or PDCs with serial dilutions for 48 h and their viability was measured by a standard MTT assay. Data were collected by monitoring the difference between the absorbance at 560 nm and 650 nm using a GloMax-Multi Microplate Multimode Reader (Promega, Wis., USA).
# [7] = system: broad spectrum of microbes; assay: MIC, broth microdilution, across the strains tested; assay type: cell-based; conditions: E. coli, MRSA, P. aeruginosa (FIGS. 3G-I)
# Protocol: as §1
# as §2, with “Broth containing microbial cells alone was used as a positive control and broth without bacteria inoculation was used as a negative control. Each test was carried out in 3 replicates.” left out
# human red blood cells = assay: Hemolysis assay; assay type: cell-based
# Protocol: Hemolysis assay. […] The antibacterial polymer and PDC with different charges were serial diluted with PBS and placed in 96-well plates (100 μL/well). The blood cell suspension (10 μL/well) was added into the wells and incubated at 37° C. for 1 h to allow the complete hemolysis process. […] Following centrifugation at 3000 rpm for 7 min, the supernatant (70 μL/well) was transferred to another clean 96-well plate. OD 560 in each well was monitored by a microplate reader, and hemolysis was calculated using the following formula: […]
compound,measurement,setting,value
"[H]/N=C(/N)N[C@H]1[C@H](O)[C@@H](O)[C@H](O[C@@H]2O[C@@H](C)[C@](O)(C=O)[C@H]2O[C@@H]2O[C@@H](CO)[C@H](O)[C@@H](O)[C@@H]2NC)[C@@H](N/C(N)=N\[H])[C@@H]1O [Streptomycin, streptomycin, reference compound]",MIC,"E. coli (ATCC 25922); Escherichia coli, ATCC25922",8 µg/mL
same,MIC,E. coli (DH5 alpha); Escherichia coli,8 µg/mL
same,MIC,"M. smegmatis (MC^2 155); Mycolicibacterium smegmatis, MC^2155",0.5 µg/mL
same,MIC,"[1]; Pseudomonas aeruginosa, ATCC27853",16 µg/mL
same,MIC,[2]; Staphylococcus aureus,16 µg/mL
same,MIC,"S. aureus (Newman); Staphylococcus aureus, NEWMAN",16 µg/mL
same,biofilm remaining,E. coli biofilm,more than 50%
same,biofilm reduced / removed,P. aeruginosa biofilm,75%
same,biofilm remaining,MRSA biofilm,more than 50%
same,increase in MIC after 20 passages,E. coli ATCC 25922 [3],10 fold
same,"antibacterial efficacy on intracellular bacteria (CFU), in words",[4],did not show much therapeutic efficacy
same,mice rescued (survival),P. aeruginosa ATCC 27853,40%
same,"bactericidal effect / EB staining, in words",E. coli ATCC 25922 [5],little EB infiltration at 3 h
Hex-Cys-Cys-DET-strep [Positively-charged PDC],MIC E. coli (ATCC 25922),E. coli (ATCC 25922),20 µg/mL
same,MIC E. coli (DH5 alpha),E. coli (DH5 alpha),20 µg/mL
same,MIC M. smegmatis (MC^2 155),M. smegmatis (MC^2 155),1.25 µg/mL
same,MIC P. aeruginosa (ATCC 27853),[1],20 µg/mL
same,MIC S. aureus (MRSA ATCC33591),[2],20 µg/mL
same,MIC S. aureus (Newman),S. aureus (Newman),10 µg/mL
same,HEK293 IC50,[6],>2000 µg/mL
same,"effect of pH (6.0 vs 7.4) on MIC, in words",[7],MICs were unaffected by pH variation
Hex-Cys-Cys-DET-DMA [Neutralized polymer],"hemolytic activity, in words",human red blood cells,did not show any hemolytic activity
Hex-Cys-Cys-DET2 polymer [Positively-charged polymer],"hemolytic activity, in words",human red blood cells,only induced hemolysis at a high level of 10 mg/mL
